# Data: ChEMBL document CHEMBL1201862, “PubChem BioAssay data set” (2004)
# Active and inactive are the calls of the source.
# Legend:
# X-box-binding protein 1 = X-box-binding protein 1 (Homo sapiens, UniProt P17861); format: functional, Cricetulus griseus;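 also: confirmatory dose-response counter-screen serving a CHOP assay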
# [1] = target: Guanyl-specific ribonuclease T1 (Aspergillus oryzae (strain ATCC 42149 / RIB 40), UniProt P00651); assay: inhibition of ribonuclease T1 activity – biochemical, fluorescence polarization, 1536-well, counter-screen for TPT1 inhibitor project, dose response (AID 2167)
# [2] = target: Likely tRNA 2'-phosphotransferase (Candida albicans (strain SC5314 / ATCC MYA-2876) (Yeast), UniProt Q5A7N4); assay: inhibition of Candida TPT1 enzyme activity – biochemical, fluorescence polarization, dose response (AID 2160)
# Protein RecA = target: T1, Protein RecA (Mycobacterium tuberculosis, UniProt P9WHJ3); assay: Fluorescence Cell-Free Homogeneous Dose Retest to Identify Inhibitors of RecA-Intein Splicing Activity. [Related pubchem assays (depositor defined):AID2097, AID2223, AID489010, AID492950]; format: functional
# T1 sequence (P9WHJ3 whole entry): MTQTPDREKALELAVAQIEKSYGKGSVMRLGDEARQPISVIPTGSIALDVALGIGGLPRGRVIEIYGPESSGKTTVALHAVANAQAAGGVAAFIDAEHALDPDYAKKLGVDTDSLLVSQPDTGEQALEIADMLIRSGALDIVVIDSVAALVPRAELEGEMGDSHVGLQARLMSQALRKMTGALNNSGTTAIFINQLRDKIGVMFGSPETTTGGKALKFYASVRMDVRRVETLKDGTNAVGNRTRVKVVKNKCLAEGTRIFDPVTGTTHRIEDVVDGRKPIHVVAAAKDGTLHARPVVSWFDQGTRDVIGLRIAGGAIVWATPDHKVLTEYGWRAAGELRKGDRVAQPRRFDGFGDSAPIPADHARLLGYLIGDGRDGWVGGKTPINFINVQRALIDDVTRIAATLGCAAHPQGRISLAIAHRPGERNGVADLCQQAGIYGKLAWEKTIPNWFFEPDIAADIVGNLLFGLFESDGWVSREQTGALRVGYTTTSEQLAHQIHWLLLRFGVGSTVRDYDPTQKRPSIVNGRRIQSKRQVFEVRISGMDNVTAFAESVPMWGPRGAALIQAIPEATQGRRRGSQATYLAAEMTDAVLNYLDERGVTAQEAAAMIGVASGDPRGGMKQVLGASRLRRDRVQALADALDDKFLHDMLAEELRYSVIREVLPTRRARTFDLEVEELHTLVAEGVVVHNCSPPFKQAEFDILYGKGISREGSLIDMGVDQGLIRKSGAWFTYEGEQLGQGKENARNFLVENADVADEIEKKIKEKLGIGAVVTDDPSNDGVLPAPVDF
# [3] = target: T2, Replicative DNA helicase DnaB (Mycobacterium tuberculosis, UniProt P9WMR3); assay: DnaB intein splicing inhibitors, dose response, biochemical, cell-free fluorescence (AID 449749); format: functional
# T2 sequence (P9WMR3 whole entry): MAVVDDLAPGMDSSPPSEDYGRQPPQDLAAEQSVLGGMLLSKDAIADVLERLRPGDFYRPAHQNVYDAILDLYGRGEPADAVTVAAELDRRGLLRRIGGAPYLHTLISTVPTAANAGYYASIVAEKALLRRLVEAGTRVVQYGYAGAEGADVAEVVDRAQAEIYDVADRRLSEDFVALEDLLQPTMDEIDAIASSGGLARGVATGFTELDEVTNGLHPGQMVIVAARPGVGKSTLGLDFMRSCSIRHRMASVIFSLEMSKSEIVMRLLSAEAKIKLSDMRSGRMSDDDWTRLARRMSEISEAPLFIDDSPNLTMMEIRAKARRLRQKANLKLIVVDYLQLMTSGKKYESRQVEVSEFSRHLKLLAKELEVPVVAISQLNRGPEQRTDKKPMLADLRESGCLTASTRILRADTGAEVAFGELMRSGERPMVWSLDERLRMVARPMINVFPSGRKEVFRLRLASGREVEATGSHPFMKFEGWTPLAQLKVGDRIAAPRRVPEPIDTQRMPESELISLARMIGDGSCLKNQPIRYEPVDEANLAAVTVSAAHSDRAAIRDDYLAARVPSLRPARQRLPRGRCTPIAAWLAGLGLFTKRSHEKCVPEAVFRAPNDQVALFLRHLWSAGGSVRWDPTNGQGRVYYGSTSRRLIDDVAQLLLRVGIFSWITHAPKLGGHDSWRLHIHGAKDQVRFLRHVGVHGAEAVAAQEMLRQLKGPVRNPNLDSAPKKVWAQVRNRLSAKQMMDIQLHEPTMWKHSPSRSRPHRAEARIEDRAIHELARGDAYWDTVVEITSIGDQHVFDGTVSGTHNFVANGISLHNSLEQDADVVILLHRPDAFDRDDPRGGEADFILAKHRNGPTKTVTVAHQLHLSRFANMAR
# HEK293 [4] = assay: cells; conditions: Homo sapiens
# [5] = target: T3, Nucleotide-binding oligomerization domain-containing protein 1 (Homo sapiens, UniProt Q9Y239); assay: blockers of NOD1 pathway activity – revised, SAR follow-up (AID 2333); format: functional
# T3 sequence (Q9Y239 whole entry): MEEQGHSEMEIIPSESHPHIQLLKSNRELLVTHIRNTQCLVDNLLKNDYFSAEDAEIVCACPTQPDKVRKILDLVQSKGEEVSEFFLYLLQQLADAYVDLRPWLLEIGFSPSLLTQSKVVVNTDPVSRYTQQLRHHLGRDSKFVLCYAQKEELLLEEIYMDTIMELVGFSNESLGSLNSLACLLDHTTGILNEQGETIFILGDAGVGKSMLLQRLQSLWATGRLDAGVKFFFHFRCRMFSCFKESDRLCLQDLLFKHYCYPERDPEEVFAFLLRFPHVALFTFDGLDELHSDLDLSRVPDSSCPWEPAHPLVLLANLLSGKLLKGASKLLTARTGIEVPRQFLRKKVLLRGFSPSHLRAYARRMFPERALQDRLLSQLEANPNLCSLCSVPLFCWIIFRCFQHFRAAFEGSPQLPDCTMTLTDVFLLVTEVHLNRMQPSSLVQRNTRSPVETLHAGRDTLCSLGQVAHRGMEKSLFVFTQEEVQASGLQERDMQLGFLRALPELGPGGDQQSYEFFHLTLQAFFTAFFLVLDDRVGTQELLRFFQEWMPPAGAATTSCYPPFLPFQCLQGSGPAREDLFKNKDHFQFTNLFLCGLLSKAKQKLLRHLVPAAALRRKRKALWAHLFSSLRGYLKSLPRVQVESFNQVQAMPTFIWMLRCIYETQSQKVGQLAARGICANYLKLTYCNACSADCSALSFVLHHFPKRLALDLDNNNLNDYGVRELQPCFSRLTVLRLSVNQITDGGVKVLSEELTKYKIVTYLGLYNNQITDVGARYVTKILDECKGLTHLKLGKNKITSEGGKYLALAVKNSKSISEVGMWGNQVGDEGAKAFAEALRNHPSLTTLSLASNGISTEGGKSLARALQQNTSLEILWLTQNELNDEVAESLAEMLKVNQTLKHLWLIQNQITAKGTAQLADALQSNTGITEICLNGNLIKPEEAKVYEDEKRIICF
# [6] = target: Nucleotide-binding oligomerization domain-containing protein 2 (Homo sapiens, UniProt Q9HC29); assay: PubChem AID 2334; format: functional
# Tumor necrosis factor = Tumor necrosis factor (Homo sapiens, UniProt P01375); assay: analog potency on TNFa NF-kB signaling – cell-based, revised, SAR follow-up (AID 2337); format: functional
# [7] = target: Polyadenylate-binding protein 1 (Homo sapiens, UniProt P11940); assay: blockers of PABP interaction with poly(A) – biochemical, fluorescence polarization, […] (AID 2014)
# [8] = target: Eukaryotic translation initiation factor 4H (Homo sapiens, UniProt Q15056); assay: eIF4H binding inhibition – biochemical, uHTS, fluorescence polarization, translation initiation inhibitor project, primary screen (AID 2012)
# HEK293 [9] = assay: Fluorescence-based counterscreen for potentiators or agonists of NPY-Y2: cell-based high-throughput dose response assay to identify inhibitors of cyclic nucleotide gated ion channel (CNGC) activity. In this assay, the parental HEK293 cell line transfected with a cyclic-nucleotide gated ion channel (CNGC)-based cAMP sensor is used to measure inhibition of isoproterenol-induced CNGC activity by test compound.; format: functional; conditions: Homo sapiens
# [10] = target: T4, Neuropeptide Y receptor type 2 (Homo sapiens, UniProt P49146); assay: Fluorescence-based cell-based high-throughput dose response assay for agonists of NPY-Y2. [Related pubchem assays: 1703 (Screening assay (CNGC inhibitors).), 1359 (Screening assay (NPY-Y2 potentiators or agonists).), 1304 (Screening assay (NPY-Y1 potentiators or agonists).), 1710 (Screening assay (NPY-Y2 agonists).), 1791 (Summary AID.)]; format: functional
# T4 sequence (P49146 whole entry): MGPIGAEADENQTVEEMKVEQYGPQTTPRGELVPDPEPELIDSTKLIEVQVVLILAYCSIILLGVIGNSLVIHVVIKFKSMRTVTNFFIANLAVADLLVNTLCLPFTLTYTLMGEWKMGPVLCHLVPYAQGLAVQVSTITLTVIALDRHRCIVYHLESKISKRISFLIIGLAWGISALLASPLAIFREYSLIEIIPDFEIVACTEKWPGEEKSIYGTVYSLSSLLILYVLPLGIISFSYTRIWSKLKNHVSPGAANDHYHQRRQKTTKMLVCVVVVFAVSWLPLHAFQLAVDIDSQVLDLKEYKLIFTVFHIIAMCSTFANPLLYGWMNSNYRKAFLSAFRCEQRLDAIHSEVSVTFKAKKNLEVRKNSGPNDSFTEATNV
# [11] = target: T5, Neuropeptide Y receptor type 1 (Homo sapiens, UniProt P25929); assay: Fluorescence-based counterscreen for agonists of NPY-Y2: cell-based high-throughput dose response assay for agonists of NPY-Y1.; format: functional
# T5 sequence (P25929 whole entry): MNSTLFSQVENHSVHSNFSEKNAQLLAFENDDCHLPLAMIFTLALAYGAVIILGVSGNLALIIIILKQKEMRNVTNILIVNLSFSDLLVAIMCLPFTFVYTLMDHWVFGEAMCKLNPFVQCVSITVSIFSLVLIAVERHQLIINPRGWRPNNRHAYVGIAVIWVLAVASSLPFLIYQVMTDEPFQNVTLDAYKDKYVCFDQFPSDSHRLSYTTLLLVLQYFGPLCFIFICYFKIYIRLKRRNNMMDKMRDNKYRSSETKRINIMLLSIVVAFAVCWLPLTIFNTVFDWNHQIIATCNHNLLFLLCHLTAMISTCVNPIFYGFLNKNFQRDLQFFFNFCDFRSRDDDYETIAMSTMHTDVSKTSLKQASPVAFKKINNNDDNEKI
# [12] = target: DNA dC->dU-editing enzyme APOBEC-3A (Homo sapiens, UniProt P31941); assay: Dose Response confirmation of small molecule APOBEC3A DNA Deaminase Inhibitors via a fluorescence-based single-stranded DNA deaminase assay. [Related pubchem assays (depositor defined):AID493011, AID493024]; format: functional
# [13] = target: DNA dC->dU-editing enzyme APOBEC-3G (Homo sapiens, UniProt Q9HC16); format: functional;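 also: Dose-response counterscreen measuring inhibition of APOBEC3G DNA deaminase activity, run while confirming APOBEC3A inhibitors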
# DNA dC->dU-editing enzyme APOBEC-3G, sequence (Q9HC16 whole entry): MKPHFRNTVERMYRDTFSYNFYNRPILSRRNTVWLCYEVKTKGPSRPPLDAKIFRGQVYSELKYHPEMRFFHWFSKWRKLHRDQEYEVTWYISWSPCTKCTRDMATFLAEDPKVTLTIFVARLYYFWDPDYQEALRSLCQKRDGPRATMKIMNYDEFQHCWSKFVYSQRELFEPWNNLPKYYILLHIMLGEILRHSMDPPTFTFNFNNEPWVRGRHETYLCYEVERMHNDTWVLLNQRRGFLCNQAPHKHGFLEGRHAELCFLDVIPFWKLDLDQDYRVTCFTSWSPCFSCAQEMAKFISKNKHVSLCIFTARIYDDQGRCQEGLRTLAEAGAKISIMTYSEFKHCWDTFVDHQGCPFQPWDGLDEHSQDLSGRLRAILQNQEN
# Tumor necrosis factor, sequence (P01375 whole entry): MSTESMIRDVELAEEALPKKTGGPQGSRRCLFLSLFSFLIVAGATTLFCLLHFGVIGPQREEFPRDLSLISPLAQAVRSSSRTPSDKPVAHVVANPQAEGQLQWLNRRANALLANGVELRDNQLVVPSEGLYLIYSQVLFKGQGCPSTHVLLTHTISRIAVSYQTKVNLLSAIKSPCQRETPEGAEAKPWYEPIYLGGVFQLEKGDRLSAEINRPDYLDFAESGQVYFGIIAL
# Nucleotide-binding oligomerization domain-containing protein 2, sequence (Q9HC29 whole entry, the tested form may be a part): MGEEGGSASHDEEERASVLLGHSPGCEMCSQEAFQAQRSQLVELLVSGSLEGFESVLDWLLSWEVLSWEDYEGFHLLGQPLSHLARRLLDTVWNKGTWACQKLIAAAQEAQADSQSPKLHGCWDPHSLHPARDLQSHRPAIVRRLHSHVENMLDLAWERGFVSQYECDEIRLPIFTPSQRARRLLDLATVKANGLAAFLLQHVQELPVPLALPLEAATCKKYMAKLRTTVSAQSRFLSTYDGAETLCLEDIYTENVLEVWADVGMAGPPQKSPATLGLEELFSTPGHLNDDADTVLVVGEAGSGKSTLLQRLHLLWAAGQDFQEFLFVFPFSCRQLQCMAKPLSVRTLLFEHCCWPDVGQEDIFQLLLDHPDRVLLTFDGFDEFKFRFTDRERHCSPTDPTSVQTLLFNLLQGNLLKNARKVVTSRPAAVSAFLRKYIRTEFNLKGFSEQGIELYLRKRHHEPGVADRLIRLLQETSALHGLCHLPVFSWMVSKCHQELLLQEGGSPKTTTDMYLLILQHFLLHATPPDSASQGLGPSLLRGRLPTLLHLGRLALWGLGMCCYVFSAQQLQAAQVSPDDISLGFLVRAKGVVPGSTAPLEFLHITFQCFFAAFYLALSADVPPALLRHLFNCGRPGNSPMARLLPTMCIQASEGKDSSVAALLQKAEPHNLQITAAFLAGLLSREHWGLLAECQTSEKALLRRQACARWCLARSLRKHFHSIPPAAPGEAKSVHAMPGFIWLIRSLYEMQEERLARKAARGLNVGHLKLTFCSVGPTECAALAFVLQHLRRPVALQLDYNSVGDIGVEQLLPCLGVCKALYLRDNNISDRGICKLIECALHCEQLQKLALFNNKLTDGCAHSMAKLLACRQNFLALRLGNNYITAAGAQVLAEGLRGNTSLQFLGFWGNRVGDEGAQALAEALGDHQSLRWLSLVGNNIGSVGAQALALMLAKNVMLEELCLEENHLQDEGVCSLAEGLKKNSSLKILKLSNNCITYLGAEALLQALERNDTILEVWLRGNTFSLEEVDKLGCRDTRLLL
# X-box-binding protein 1, sequence (P17861 whole entry): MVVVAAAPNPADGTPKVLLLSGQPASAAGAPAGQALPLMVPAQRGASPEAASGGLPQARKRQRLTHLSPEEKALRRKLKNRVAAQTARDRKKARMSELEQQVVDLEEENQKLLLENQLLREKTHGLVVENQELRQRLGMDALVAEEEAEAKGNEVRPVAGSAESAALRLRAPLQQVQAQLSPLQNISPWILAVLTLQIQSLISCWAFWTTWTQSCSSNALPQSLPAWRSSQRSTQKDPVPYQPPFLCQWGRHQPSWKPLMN
# Polyadenylate-binding protein 1, sequence (P11940 whole entry): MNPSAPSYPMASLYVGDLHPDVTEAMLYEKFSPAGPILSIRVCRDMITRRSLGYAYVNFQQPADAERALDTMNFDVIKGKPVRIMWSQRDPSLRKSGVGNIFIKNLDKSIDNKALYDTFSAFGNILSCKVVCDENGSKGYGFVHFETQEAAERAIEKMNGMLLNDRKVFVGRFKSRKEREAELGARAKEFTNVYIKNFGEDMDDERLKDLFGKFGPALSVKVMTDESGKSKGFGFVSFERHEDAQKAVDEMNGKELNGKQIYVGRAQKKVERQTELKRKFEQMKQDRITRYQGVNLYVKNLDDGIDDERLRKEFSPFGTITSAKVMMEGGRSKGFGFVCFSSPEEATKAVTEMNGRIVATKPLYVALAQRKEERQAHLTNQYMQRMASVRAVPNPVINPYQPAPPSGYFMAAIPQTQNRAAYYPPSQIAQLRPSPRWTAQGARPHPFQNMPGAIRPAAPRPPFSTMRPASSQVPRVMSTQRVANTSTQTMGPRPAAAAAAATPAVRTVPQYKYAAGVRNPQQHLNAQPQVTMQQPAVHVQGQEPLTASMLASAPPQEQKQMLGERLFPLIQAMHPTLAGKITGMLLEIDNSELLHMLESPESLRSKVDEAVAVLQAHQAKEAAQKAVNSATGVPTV
# DNA dC->dU-editing enzyme APOBEC-3A, sequence (P31941 whole entry): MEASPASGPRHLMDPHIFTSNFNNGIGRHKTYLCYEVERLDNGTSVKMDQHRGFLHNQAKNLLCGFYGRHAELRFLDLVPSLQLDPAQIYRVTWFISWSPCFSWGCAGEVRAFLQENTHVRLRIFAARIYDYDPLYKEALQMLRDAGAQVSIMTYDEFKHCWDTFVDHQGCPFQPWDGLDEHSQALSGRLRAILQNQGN
# Guanyl-specific ribonuclease T1, sequence (P00651 whole entry): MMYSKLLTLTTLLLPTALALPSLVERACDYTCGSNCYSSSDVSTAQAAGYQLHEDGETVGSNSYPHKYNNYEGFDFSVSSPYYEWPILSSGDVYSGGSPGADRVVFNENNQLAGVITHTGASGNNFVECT
# Likely tRNA 2'-phosphotransferase, sequence (Q5A7N4 whole entry): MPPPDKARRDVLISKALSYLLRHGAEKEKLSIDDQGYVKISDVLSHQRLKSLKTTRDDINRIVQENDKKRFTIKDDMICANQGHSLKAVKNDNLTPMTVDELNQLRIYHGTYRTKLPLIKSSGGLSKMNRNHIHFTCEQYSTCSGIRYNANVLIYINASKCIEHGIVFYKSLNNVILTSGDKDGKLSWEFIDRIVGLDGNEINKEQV
structure (smiles),measurement,setting,value
Oc1ccc(N=Nc2cccc(C(F)(F)F)c2)cc1/C=N/c1ccc(N2CCOCC2)cc1,Absolute IC50 (XBP1),X-box-binding protein 1,10 µM
Cc1ccc(N2C(=O)NC(=O)/C(=C\c3ccc([N+](=O)[O-])o3)C2=O)cc1,IC50,[1],> 55.7 µM (not active)
same,IC50,[2],5.55 µM (active)
Cc1cc(-c2[nH]nc3c2C(c2ccc(Cl)cc2)C(C#N)=C(N)O3)c(C)s1 (stereo not drawn),EC50,Protein RecA,3.42 µM (active)
same,Absolute IC50 (XBP1),X-box-binding protein 1,10 µM
same,AC50,[3],3.07 µM (active)
COC(=O)c1scc(S(=O)(=O)C(C)C)c1NN=C(C#N)C(=O)c1ccc(Cl)cc1,IC50,HEK293 [4],> 20 µM (inactive)
same,IC50,[5],5.43 µM (active)
same,IC50,[6],5.88 µM (active)
same,IC50,Tumor necrosis factor,10.9 µM (active)
C[N+]1(CCOS(=O)C23CC4CC(CC(C4)C2)C3)CCOCC1 (stereo not drawn),IC50,[7],11.8 µM (active)
same,IC50,[8],> 100 µM (inactive)
CCC(=O)N1CCc2cc(S(=O)(=O)N3CCN(c4ccc(C(C)=O)cc4)CC3)ccc21,IC50,HEK293 [4],> 20 µM (inactive)
same,IC50,[5],> 20 µM (inactive)
same,IC50,[6],> 20 µM (inactive)
same,IC50,Tumor necrosis factor,> 20 µM (inactive)
COC(=O)c1ccc(NC(=O)CSc2nnc(C(C)NC(=O)c3ccccc3Cl)n2C)cc1 (stereo not drawn),EC50,HEK293 [9],12.7 µM (not active)
same,EC50,[10],19.8 µM (not active)
same,EC50,[11],26.4 µM (not active)
CC[n+]1c(C)n(CC(O)COCC2CC=CCC2)c2ccccc21 (stereo not drawn),IC50,[7],5.47 µM (active)
same,IC50,[12],2.12 µM (active)
same,IC50,[8],92.2 µM (active)
same,IC50,[13],3.86 µM (active)
